Literature values as cited in patent US20240216476A1, “COMBINATION OF BITTER RECEPTOR AGONIST AND GUT-SIGNALING COMPOUND” (AARDVARK THERAPEUTICS, INC., priority 2021, published 2024).
Like-named read-outs stand apart in the source and are kept apart here. Marks after values point to notes of the source that are not given here.

What was measured:
NASH in vivo models = conditions: cited from earlier work
[1] = cited from earlier work; for Effect on Body Weight (placebo-adjusted change from baseline) / Effect on HbA1c (placebo-adjusted change from baseline) / Effect on Body Weight (placebo-adjusted change from baseline), percent: QD 24-26 weeks; for TG level change from baseline: placebo +19%
ob/ob mice = conditions: cited from earlier work
[2] = test system: C57Bl/6J mice fed with high-fat diet; conditions: vildagliptin 30 mg/kg/day 7 weeks, alogliptin 0.03% (wt/wt) in diet for life span, cited from earlier work
[3] = cited from earlier work
[4] = Male C57BL/6J mice fed high fat diet for 20 weeks, 0.3 mg/kg/day PO for 20 weeks
[5] = Male C57BL/6J mice fed AMLN diet for 50 weeks, 30 mg/kg, PO, QD for 8 weeks
[6] = C57BL/6 male mice fed MCD diet for 4 weeks, 5 mg/kg/day PO for the last 2 weeks
[7] = mouse model of diet-induced NASH, 10 mg/kg/day PO for eight weeks
[8] = mouse model of diet-induced NASH, 10 mg/kg/day PO for eight weeks, significantly
[9] = Male DIAMOND mice fed WDSW for 24 weeks, 30 mg/kg/day PO QD for the last 8 weeks
[10] = semaglutide 3 mg, sitagliptin 100 mg, saxagliptin 2.5 mg, vildagliptin 50 mg, alogliptin 12.5 mg, linagliptin 5 mg
[11] = semaglutide 7 mg, sitagliptin 200 mg, saxagliptin 5 mg, vildagliptin 100 mg, alogliptin 25 mg
[12] = vildagliptin 1.9 mg/kg BID 33 days
[13] = vildagliptin 6.3 mg/kg BID 33 days
[14] = sitagliptin 0.004% in diet 12 weeks
[15] = Male C57BL/6 mice fed CDAHFD diet for 20 weeks, 3 mg/kg PO for 12 weeks
[16] = C57BL/6 mice on 60% high fat diet for 36 weeks, 0.3-3 mg/kg/day PO for 24 days
[17] = C57Bl6/J mice fed MCD diet for 3 weeks, 10 or 30 mg/kg, PO, QD for 3 weeks
[18] = Male C57BL/6 mice fed fast food diet for 330 days, treatment started after 240 days, dose unknown

Compound: CC[C@H]1[C@@H](O)[C@@H]2[C@H](CC[C@]3(C)[C@@H]([C@H](C)CCNC(=O)NS(=O)(=O)c4ccc(C(C)(C)C)cc4)CC[C@@H]23)[C@@]2(C)CC[C@@H](O)C[C@@H]12 [EDP-305]
- fibrogenic gene expression (NASH in vivo models; Male C57BL/6 mice fed CDAHFD diet for 12 weeks, high dose (30 mg/kg daily PO) from week 6, significant): decreased fibrogenic
- fibrosis progression on histopathology (NASH in vivo models; Male C57BL/6 mice fed CDAHFD diet for 12 weeks, high-dose 30 mg/kg daily PO from beginning of week 6): halted fibrosis

Compound: C[C@H](NC(=O)C(=O)Nc1ccccc1C(C)(C)C)C(=O)N[C@@H](CC(=O)O)C(=O)COc1c(F)c(F)cc(F)c1F [Emricasan]
- inflammation, ballooning, and fibrosis on histopathology (NASH in vivo models; [4]): Improved
- serum levels of glucose, HOMA-IR, cholesterol, ALT, and AST (NASH in vivo models; [4]): Decreased serum levels

Compound: CSc1ccc(C(=O)/C=C/c2cc(C)c(OC(C)(C)C(=O)O)c(C)c2)cc1 [Elafibranor (GFT505)]
- histopathological scores of hepatic steatosis and inflammation, as well as fibrosis severity (NASH in vivo models; [5]): Significantly reduced
- liver TG, total cholesterol contents, or plasma levels of ALT, AST, TG or total cholesterol (NASH in vivo models; [5]): No effects on liver TG,

Compound: CCCCCCCCCCCCCCCCCCCC(=O)N[C@H]1CC[C@@]2(C)[C@@H](C1)C[C@@H](O)[C@@H]1[C@@H]2C[C@H](O)[C@]2(C)[C@@H]([C@H](C)CCC(=O)O)CC[C@@H]12.CNC[C@H](O)[C@@H](O)[C@H](O)[C@H](O)CO [Aramchol]
- ALT, AST, or TG (NASH in vivo models; [6]): No effects on ALT,
- features of steatohepatitis and fibrosis (NASH in vivo models; [6]): Reduced features of
- protein expression of COL1A1 in the liver (NASH in vivo models; [6]): decreased protein

Compound: CC[C@H]1[C@@H](O)[C@@H]2[C@H](CC[C@]3(C)[C@@H]([C@H](C)CCC(=O)O)CC[C@@H]23)[C@@]2(C)CC[C@@H](O)C[C@@H]12 [Obeticholic acid (INT-747)]
- histopathological scores of hepatic steatosis and inflammation (NASH in vivo models; [5]): Significantly reduced
- liver weight (NASH in vivo models; [5]): Significantly reduced
- total liver TG and total cholesterol, collagen 1a1, and galectin-3 content (NASH in vivo models; [5]): Significantly reduced
- plasma total cholesterol (NASH in vivo models; Male C57BL/6J mice fed AMLN diet for 50 weeks, 30 mg/kg, PO, QD for 8 weeks, significant): reduced plasma total

Compound: Cc1cc(OCP2(=O)OCC[C@@H](c3cccc(Cl)c3)O2)cc(C)c1Cc1ccc(O)c(C(C)C)c1 (some centres unmarked) [VK2809]
- NAS score, mean improvement (NASH in vivo models; [7]): (a 40% mean
- all subcomponents of NAS (inflammation, ballooning, and steatosis) (NASH in vivo models; [7]): Improvements in all
- liver contents of triglyceride, cholesterol, collagen, and hydroxyproline (NASH in vivo models; [8]): improved liver contents
- liver fibrosis on histopathology (NASH in vivo models; [8]): improved NAS score
- plasma triglycerides and cholesterol (NASH in vivo models; [8]): reduced plasma

Compound: COc1cccc(C(=O)COc2ccc(CC3SC(=O)[N-]C3=O)cc2)c1.[K+] (centres unmarked) [Azemiglitazone (MSDC 0602K)]
- NASH CRN fibrosis score (NASH in vivo models; [9]): treated group was 0.
- ballooning (NASH in vivo models; [9]): significantly decreased
- mice progressed from simple steatosis to NASH compared to the control group (NASH in vivo models; [9]): Significantly fewer
- serum levels of fasting insulin, and AST and ALT (NASH in vivo models; [9]): dramatically reduced
- steatosis-activity-fibrosis (SAF) score (NASH in vivo models; Male DIAMOND mice fed WDSW for 24 weeks, 30 mg/kg/day PO QD for the last 8 weeks, significantly, reduced to the level of baseline controls): lower in the MSDC-

Compound: CCCCOCCOc1ccc(-c2ccc3c(c2)/C=C(/C(=O)Nc2ccc([S@@+]([O-])Cc4cncn4CCC)cc2)CCCN3CC(C)C)cc1 [Cenicriviroc]
- intrahepatic accumulation of inflammatory macrophages (NASH in vivo models; Male C57BL/6N mice fed CDAHFD, IP, 30 mg/kg/day for 4 or 14 weeks): Inhibited intrahepatic
- frequency of intrahepatic anti-inflammatory macrophages (NASH in vivo models; Male C57BL/6N mice fed CDAHFD, IP, 30 mg/kg/day for 14 weeks): weeks, and increased
- fibrosis on histopathology (NASH in vivo models; Male C57BL/6N mice fed CDAHFD, IP, only with 30 mg/kg/day for 14 weeks): Significantly improved

Compound: O=C(O)c1cc(F)c2nc(N3[C@@H]4CC[C@H]3C[C@@H](OCc3c(-c5ccccc5OC(F)(F)F)noc3C3CC3)C4)sc2c1 [Tropifexor]
- inflammation, steatosis, and fibrosis (NASH in vivo models; AMLN model (C57BL/6J mice on AMLN diet for 30 weeks), 0.03-0.9 mg/kg for the last 4 weeks): tropifexor reduced
- mRNA levels of fibrogenic markers and hepatic inflammation cell populations (NASH in vivo models; AMLN model (C57BL/6J mice), 0.03-0.9 mg/kg for the last 4 weeks): dramatically reduced
- ALT/AST levels relative to controls (NASH in vivo models; AMLN model (C57BL/6J mice), 0.03-0.9 mg/kg for the last 4 weeks, dose-dependent): reduction in ALT/AST

Compound: N#C[C@@H]1CCCN1C(=O)CNC12CC3CC(CC(O)(C3)C1)C2 [Vildagliptin]
- Effect on Body Weight (placebo-adjusted change from baseline) [1, 10]: 50 mg: +0.6 kg
- Effect on HbA1c (placebo-adjusted change from baseline) [1, 10]: 50 mg: −0.7%
- Effect on Body Weight (placebo-adjusted change from baseline), percent ([1]; semaglutide 3 mg, sitagliptin 100 mg, saxagliptin 2.5 mg, vildagliptin 50 mg): (+0.65%)
- Effect on Body Weight (placebo-adjusted change from baseline) [1, 11]: 100 mg: +1.2 kg
- Effect on HbA1c (placebo-adjusted change from baseline) [1, 11]: 100 mg: −1.1%
- Effect on Body Weight (placebo-adjusted change from baseline), percent ([1]; semaglutide 7 mg, sitagliptin 200 mg, saxagliptin 5 mg, vildagliptin 100 mg): (+1.3%)
- TG level change from baseline ([1]; vildagliptin 50 mg QD 24 weeks): from baseline: +1%
- TG level change from baseline ([1]; vildagliptin 100 mg QD 24 weeks): (50 mg) ^$ and +5%
- Other lipid parameters, change ([1]; vildagliptin, all treatment groups, no significant between-treatment differences): changed by <3%
- Control-adjusted Percent Change in Fasting Blood Glucose (ob/ob mice; [12]): −29.4%
- Control-adjusted Percent Change in TG Level (ob/ob mice; [12]): −29.3%
- Control-adjusted Percent Change in Fasting Blood Glucose (ob/ob mice; [13]): −40.2%
- Control-adjusted Percent Change in TG Level (ob/ob mice; [13]): −19.9%
- Control-adjusted Percent Change in Body Weight Gain [2, 14]: +11%
- Control-adjusted Percent Change in Fasting Blood Glucose [2, 14]: −15.1%*
- Control-adjusted Percent Change in Insulin Level [2, 14]: −33.2%
- Control-adjusted Percent Change in Lipid Levels: TC [2]: −51.5% in TC*
- Control-adjusted Percent Change in Lipid Levels: TG [2]: −23.6% in TG**

Compound: Lixisenatide
- Incidence of Hypoglycemic Episodes for Combination with Insulin (vs. Placebo) ([3]; in vivo): 28%*
- Incidence of Hypoglycemic Episodes for Combination with Metformin (vs. Placebo) ([3]; in vivo): 3%
- Incidence of Hypoglycemic Episodes for Combination with a Sulfonylurea (vs. Placebo) ([3]; in vivo): 15%**
- Incidence of Hypoglycemic Episodes for Monotherapy at the Highest Dose (vs. Placebo) ([3]; in vivo): 2%

Compound: CCCCCCCCCCCCCCCC(=O)N[C@@H](CCC(=O)NCCCC[C@H](NC(=O)[C@H](C)NC(=O)[C@H](C)NC(=O)[C@H](CCC(N)=O)NC(=O)CNC(=O)[C@H](CCC(=O)O)NC(=O)[C@H](CC(C)C)NC(=O)[C@H](Cc1ccc(O)cc1)NC(=O)[C@H](CO)NC(=O)[C@H](CO)NC(=O)[C@@H](NC(=O)[C@H](CC(=O)O)NC(=O)[C@H](CO)NC(=O)[C@@H](NC(=O)[C@H](Cc1ccccc1)NC(=O)[C@@H](NC(=O)CNC(=O)[C@H](CCC(=O)O)NC(=O)[C@H](C)NC(=O)[C@@H](N)Cc1cnc[nH]1)[C@@H](C)O)[C@@H](C)O)C(C)C)C(=O)N[C@@H](CCC(=O)O)C(=O)N[C@@H](Cc1ccccc1)C(=O)N[C@H](C(=O)N[C@@H](C)C(=O)N[C@@H](Cc1c[nH]c2ccccc12)C(=O)N[C@@H](CC(C)C)C(=O)N[C@H](C(=O)N[C@@H](CCCNC(=N)N)C(=O)NCC(=O)N[C@@H](CCCNC(=N)N)C(=O)NCC(=O)O)C(C)C)[C@@H](C)CC)C(=O)O [Liraglutide]
- Incidence of Hypoglycemic Episodes for Combination with Metformin (vs. Placebo) ([3]; prescribing information): 3.6%
- Incidence of Hypoglycemic Episodes for Combination with a Sulfonylurea (vs. Placebo) ([3]; prescribing information, lixisenatide: add-on to a sulfonylurea with or without metformin): 7.5%

Compound: CCO[C@@H](Cc1ccc(OCCn2c(C)ccc2-c2ccc(SC)cc2)cc1)C(=O)O [Saroglitazar]
- hepatic steatosis (NASH in vivo models; [15]): induced reversal of
- liver TNFα levels and hepatic fibrogenic and inflammatory gene expression (NASH in vivo models; [15]): reduced liver TNFα
- reduction of serum ALT (NASH in vivo models; [15]): including ALT (60%),
- reduction of serum AST (NASH in vivo models; [15]): AST (43%), and MCP1
- reduction of serum MCP1 (NASH in vivo models; [15]): (45%). Liver lipid (TG)
- vacuolation and ballooning (NASH in vivo models; [15]): reduced or no

Compound: CC(C)c1cc(Oc2c(Cl)cc(-n3nc(C#N)c(=O)[nH]c3=O)cc2Cl)n[nH]c1=O [Resmetirom (MGL-3196)]
- insulin sensitivity (NASH in vivo models; [16]): Improved insulin
- reduction of serum ALT (NASH in vivo models; [16]): (46%), free fatty acids
- reduction of serum cholesterol (NASH in vivo models; [16]): (67%).
- reduction of serum free fatty acids (NASH in vivo models; [16]): (30%), and cholesterol
- steatosis, fibrosis or inflammation in treated livers (NASH in vivo models; [16]): No detectable

Compound: O=C(O)CCCc1cc2cc(Cl)ccc2n1S(=O)(=O)c1ccc2ncsc2c1 [Lanifibranor (IVA337)]
- induction of profibrotic and fibrotic genes (NASH in vivo models; [17]): inhibited the induction
- plasma alanine aminotransferase levels (NASH in vivo models; [17]): significantly reduced
- steatosis and inflammation on histopathology (NASH in vivo models; [17]): IVA337 prevented

Compound: Cc1cc(F)c(C(=O)Nc2cccc(-c3nncn3C(C)C)n2)cc1-n1cnc(C2CC2)c1 [Selonsertib (GS-4997)]
- liver steatosis, fibrosis, and insulin resistance (NASH in vivo models; [18]): Significantly reduced
- reduction of liver cholesterol (NASH in vivo models; [18]): 45%
- reduction of serum bile acid cholate (NASH in vivo models; [18]): cholate (91% reduction)
- reduction of serum cholesterol (NASH in vivo models; [18]): 14%
